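Growth conditions: 96-well plates. Treatment: test compound, 48 hours, 5 concentrations. Analysis: linear interpolation between bracketing concentrations; unreached endpoints set to highest concentration. TGI: total growth inhibition.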
Columns and labels:
Experiment in all cases: NCI-60 cell line screen, 48 h
[1] = tested on: COLO 205 colon
[2] = tested on: DU-145 prostate
[3] = tested on: EKVX NSCLC
[4] = tested on: M14 melanoma
[5] = tested on: MOLT-4 leukemia
[6] = tested on: NCI-H460 lung
[7] = tested on: OVCAR-5 ovarian
[8] = tested on: PC-3 prostate
[9] = tested on: RPMI-8226 leukemia
[10] = tested on: SNB-75 CNS

Row | Compound | TGI [1] [µM] | TGI [2] [µM] | TGI [3] [µM] | TGI [4] [µM] | TGI [5] [µM] | TGI [6] [µM] | TGI [7] [µM] | TGI [8] [µM] | TGI [9] [µM] | TGI [10] [µM]
1 | Clc1ccc(Cc2nc3cc4ccccc4cc3[nH]2)cc1Cl | > 100 | 45.7 | 78.2 | 75.3 | 4.03 | > 100 | > 100 | 43.4 | > 100 | 44.5
2 | COc1ccc(/C=C(\C#N)c2ccccn2)cc1OC | > 100 | > 100 | 56.9 | > 100 | > 100 | > 100 | > 100 | 65.7 | > 100 | 84.9
3 | COC(=O)C(=O)C(C(=O)C(=O)Nc1cc(C)ccc1C)c1nc2ccccc2[nH]c1=O (stereo not given) | > 100 | > 100 | > 100 | > 100 | > 100 | > 100 | > 100 | > 100 | 71.4 | > 100
4 | O=C(OC[C@H]1C[C@H]2C(=O)OCCC[C@H]2O1)c1ccccc1 | > 100 | > 100 | > 100 | > 100 | > 100 | > 100 | > 100 | > 100 | > 100 | > 100
5 | O=C(Cn1c(=O)oc2ccccc21)N(c1ccccc1)c1ccccc1 | > 100 | > 100 | > 100 | > 100 | > 100 | > 100 | > 100 | > 100 | > 100 | 71
6 | CC(C)C1OC(=O)C(Cc2ccccc2)N(C)C(=O)C(C(C)C)OC(=O)C(Cc2ccccc2)N(C)C(=O)C(C(C)C)OC(=O)C(Cc2ccccc2)N(C)C1=O (stereo not given) | 1.95 | 3.03 | 2.41 | 2.03 | 2.33 | 2.44 | 2.44 | 1.91 | 1.31 | 2.99
7 | CNC(=O)OC1/C(C)=C\C(C)C(O)C(OC)CC(C)CC2=C(OC)C(=O)C=C(C2=O)N(C)C(=O)/C(C)=C/C=C\C1OC (stereo not given) | 7.9 | > 41.8 | 24.7 | 18.4 | 3.74 | 39.7 | 22.7 | 26 | 13.2 | 28.6
8 | CCN(CC)C(=O)N[C@@H](CC(C)C)C(=O)NC | > 100 | > 100 | > 100 | > 100 | > 100 | > 100 | > 100 | > 100 | > 100 | > 100
9 | O=c1[nH]nc(-c2cccc([N+](=O)[O-])c2)[nH]1 | > 100 | > 100 | > 100 | > 100 | > 100 | > 100 | > 100 | > 100 | > 100 | > 100
10 | Cc1n[nH]c(=O)c2c3c([nH]c12)-c1ccccc1C3 | > 100 | > 100 | > 100 | > 100 | > 100 | > 100 | > 100 | > 100 | > 100 | 66.6
11 | Cc1[nH]c2c(C)c3c([nH]c4ccc(Cl)cc43)c(C)c2c(=O)c1C | 18.8 | > 100 | > 100 | > 100 | 8.44 | 13.5 | 12.4 | 22.4 | 24.9 | > 92.5
12 | CCCCCCCC(=O)NC(C)(C)C(=O)NCC(=O)NC(CC(C)C)C(=O)NC(C)(C)C(=O)NCC(=O)NCC(=O)NC(CC(C)C)C(=O)NC(C)(C)C(=O)NCC(=O)NC(C(=O)NC(CO)CC(C)C)C(C)CC (stereo not given) | 7.18 | 9.53 | 6.91 | 7.62 | 9.43 | 8.11 | 6.94 | 7.08 | 4.27 | 7.28
13 | O=C1OCOC2(CCCC2)C1c1ccccc1 (stereo not given) | > 100 | > 100 | > 100 | > 100 | > 100 | > 100 | > 100 | > 100 | > 100 | > 100
14 | CC1(C)OCC(/C=C\C(O)CC2(C)OCCO2)CO1 (stereo not given) | > 100 | > 100 | > 100 | > 100 | > 100 | > 100 | > 100 | > 100 | > 100 | > 100
15 | N#CCCN(C(=O)Nc1ccc(NC(=O)N(CCC#N)c2ccccc2)cc1)c1ccccc1 | > 100 | > 100 | > 100 | > 100 | > 100 | > 100 | > 100 | > 100 | > 100 | > 100
16 | C=CCCCCCCCCCOC1C=CC(O)C(CO)O1 (stereo not given) | > 100 | > 100 | > 100 | 36 | 86.7 | 63.7 | > 100 | 86.4 | 50.4 | > 100
17 | Cc1ccc(NC(c2ccccc2)P(=O)(c2ccccc2)c2ccccc2)cc1 (stereo not given) | > 100 | > 100 | > 100 | > 100 | > 100 | > 100 | > 100 | > 100 | > 100 | 41.3

Source: PubChem BioAssay (NCI)
